Laboratory results: patent US8329676B2, “Cycloalkane-containing sphingosine 1-phosphate agonists” (University of Virginia Patent Foundation, priority 2005, dated 2012)

Key:
[1] = Heart rate assay; assay type: in vivo; settings: mice, intravenous, 3 mg/kg (FIG. 2)
Protocol: In the assay the test compound was administered via IV Dosing and the vehicle was 2% cyclodextrin.
Mice were dosed with VPC01091 (intravenous, 3 mg/kg) or vehicle (2% hydroxypropyl beta-cyclodextrin) and heart rate measured at the indicated times post dosing. Heart rate was captured in unrestrained, conscious animals using the ECGenie™ system.

[2] = test system: blood lymphocytes; assay: Lymphopenia assay; assay type: in vivo, mice
Protocol: Pro-drug compounds (i.e., primary alcohols such as VPC01091) are dissolved in 2% hydroxypropyl beta-cyclodextrin and introduced into mice by oral gavage at doses from 0.01 to 30 mg/kg body weight. After 24 hours (or multiples thereof), the mice are lightly anesthetized and ca. 0.1 ml of blood is drawn from the orbital sinus. The number of lymphocytes (in thousands per microliter of blood; normal is 4-11) is determined using a Hemavet blood analyzer. In the histogram showing the four isomers of VPC01091, the 100% value for the vehicle treated mouse was 7.5 at 24 hours; at 96 hours it was 5. There were three mice/group, the strain was mixed sv129×C57BL/6. Active compounds (e.g., VPC01211) are dissolved in acidified DMSO at 20 mM, and diluted 1:20 into 2% hydroxypropyl beta-cyclodextrin in water with mixing. This solution is introduced into mice by intraperitoneal (i.p.) injection at doses of 0.01-10 mg/kg body weight.
FIG. 3 describes total blood lymphocyte count following single dose of VPC01091 or vehicle. […] Five mice per group, male, 10-11 week old sv129/C57B16 strain.
A dose response curve for VPC01091 in the lymphopenia assay is given as FIG. 4. FIG. 4 graphically summarizes oral administration (gavage) of VPC01091 in 2% hydroxypropyl beta-cyclodextrin, 3 mice per group (same strain as in FIG. 3).
This phosphorylation of these compounds is thought to be catalyzed in vivo by sphingosine kinase type 2 (SPHK2), which is encoded by the SPHK2 gene in mice.

[3] = target: T1, human S1P type 3 (S1P3) receptor (Homo sapiens, UniProt Q99500); assay: GTPγS-35 binding assay, S1P3; assay type: biochemical
T1 construct: expressed in transfected cells; host or cells: HEK293T (crude microsomes)
Protocol: The assay forces expression concomitantly of a recombinant GPCR (e.g., the S1P1-5 receptor) and each of the three subunits (typically, alphai2, beta1, gamma2) of a heterotrimeric G protein in a HEK293T cell by transfecting the cell with four plasmid DNAs encoding the respective proteins. About 60 hours after transfection the cells are harvested, opened, and the nucleus discarded. This allows for the preparation of a crude microsome from the remainder. Agonist (e.g., S1P) stimulation of the receptor-G protein complex on the microsomes results in the exchange of GTP for GDP on the alpha subunit in a dose-dependent manner. To detect the GTP-bound alpha subunit, we use a GTP analog (GTPγS-35), which is a radionuclide (sulfur-35) labeled phosphothionate, that is not hydrolyzed to GDP. The microsomes with the adherent G proteins are collected by filtration and the bound GTPγS-35 quantified in a liquid scintillation counter. The assay yields relative potency (EC50 values) and maximum effect (efficacy, Emax). Antagonist activity is detected as rightward shifts in the agonist dose-response curve in the presence of a fixed amount of antagonist. If the antagonist behaves competitively, the affinity of the receptor/antagonist pair (K1) can be determined.

[4] = target: T2, human S1P3 receptor (Homo sapiens, UniProt Q99500); assay: Schild plot of S1P dose response curves at S1P3; assay type: biochemical; design: expressed in transfected cells; host or cells: hamster CHO-K1, clonal population; settings: FIGS. 12-14
Description: FIG. 12 is an illustration of a Schild plot for the results of S1P dose response curves at the human S1P3 receptor, at the indicated concentrations of test compound VPC01222.
FIG. 13 is an illustration of a Schild plot for the results of S1P dose response curves at the human S1P3 receptor, at the indicated concentrations of test compound VPC01211.
FIG. 14 is an illustration of a Schild plot for the results of S1P dose response curves at the human S1P3 receptor, at the indicated concentrations of test compound VPC01214.
(§1) This assay illustrates agonist activation of G protein coupled receptors (GPCRs) in isolation. The assay forces expression concomitantly of a recombinant GPCR (e.g., the S1P1-5 receptor) and each of the three subunits (typically, alphai2, beta1, gamma2) of a heterotrimeric G protein in a HEK293T cell by transfecting the cell with four plasmid DNAs encoding the respective proteins. About 60 hours after transfection the cells are harvested, opened, and the nucleus discarded. […] The microsomes with the adherent G proteins are collected by filtration and the bound GTPγS-35 quantified in a liquid scintillation counter. […] Antagonist activity is detected as rightward shifts in the agonist dose-response curve in the presence of a fixed amount of antagonist. If the antagonist behaves competitively, the affinity of the receptor/antagonist pair (K1) can be determined.

[5] = target: T2, human S1P3 receptor; assay: Calcium mobilization assay in T24 cells overexpressing S1P3; assay type: cell-based; design: expressed in transfected cells; settings: 10 μM test compound, FIG. 15
Protocol: FIG. 15 is an illustration of the result of a calcium mobilization assay in T24 cells overexpressing the human S1P3 receptor in response to […] S1P in the presence of 10 μM VPC01211.

[6] = target: T3, human S1P5 receptor (Homo sapiens, UniProt Q9H228); assay: GTPγS-35 binding assay, S1P5; assay type: biochemical; settings: FIG. 11
T3 construct: expressed in transfected cells; host or cells: HEK293T (crude microsomes)
Description: FIG. 11 graphically illustrates the results of a broken cell GTPγ^35S binding assay for the human S1P5 receptor. Compound ‘CA5-P’ is VPC01211. Compounds CA6-P and CA4-P are the corresponding cyclohexyl and cyclobutyl compounds.
as §1, with “discarded. This allows for the preparation of a crude microsome from the remainder. Agonist (e.g., S1P) stimulation of the receptor-G protein complex on the microsomes results in the exchange of GTP for GDP on the alpha subunit in a dose-dependent manner.” for “discarded.”

[7] = target: T4, human S1P2 receptor (Homo sapiens, UniProt O95136); assay: GTPγS-35 binding assay, S1P2; assay type: biochemical; design: expressed in transfected cells; host or cells: HEK293T (crude microsomes); settings: FIG. 8
Description: FIG. 8 graphically illustrates the results of a broken cell GTPγ^35S binding assay for the human S1P2 receptor. Compound ‘CA5-P’ is VPC01211. Compounds CA6-P and CA4-P are the corresponding cyclohexyl and cyclobutyl compounds. The ordinate represents percent GTPγ^35S binding and the abscissa represents log molar concentration of lipid.
as §1, with “discarded. This allows for the preparation of a crude microsome from the remainder.” for “discarded.”

[8] = target: T2, human S1P3 receptor; assay: Calcium mobilization assay, CHO-K1 cells expressing S1P3; assay type: cell-based; design: expressed in transfected cells; host or cells: hamster CHO-K1, clonal population; settings: FIG. 9
Protocol: FIG. 9 graphically illustrates the results of a calcium mobilization assay using CHO-K1 cells expressing recombinant human S1P3 receptor.
(§2) To measure calcium mobilization in response to agonist stimulation, cells were plated onto a 96 well plate, loaded with the calcium sensing dye Fluo-4AM and cells exposed to various concentrations of agonist for 3-5 minutes. Changes in fluorescence, which correlate with intracellular calcium mobilization, are detected using a FlexStation fluorimeter. Each agonist concentration was tested in triplicate.

[9] = target: T5, human S1P1 receptor (Homo sapiens, UniProt P21453); assay: GTPγS-35 binding assay, S1P1; assay type: biochemical; settings: relative to S1P (FIG. 6)
T5 construct: expressed in transfected cells; host or cells: HEK293T (crude microsomes)
Protocol: This assay illustrates agonist activation of G protein coupled receptors (GPCRs) in isolation. The assay forces expression concomitantly of a recombinant GPCR (e.g., the S1P1-5 receptor) and each of the three subunits (typically, alphai2, beta1, gamma2) of a heterotrimeric G protein in a HEK293T cell by transfecting the cell with four plasmid DNAs encoding the respective proteins. About 60 hours after transfection the cells are harvested, opened, and the nucleus discarded. This allows for the preparation of a crude microsome from the remainder. Agonist (e.g., S1P) stimulation of the receptor-G protein complex on the microsomes results in the exchange of GTP for GDP on the alpha subunit in a dose-dependent manner. To detect the GTP-bound alpha subunit, we use a GTP analog (GTPγS-35), which is a radionuclide (sulfur-35) labeled phosphothionate, that is not hydrolyzed to GDP. The microsomes with the adherent G proteins are collected by filtration and the bound GTPγS-35 quantified in a liquid scintillation counter. […] Antagonist activity is detected as rightward shifts in the agonist dose-response curve in the presence of a fixed amount of antagonist. If the antagonist behaves competitively, the affinity of the receptor/antagonist pair (K1) can be determined.

[10] = target: T4, human S1P2 receptor; assay: Calcium mobilization assay, CHO-K1 cells expressing S1P2; assay type: cell-based; design: expressed in transfected cells; host or cells: hamster CHO-K1, clonal population; settings: FIG. 7
Protocol: FIG. 7 graphically illustrates the results of a calcium mobilization assay using CHO-K1 cells expressing recombinant human S1P2 receptor. […] The ordinate represents percent maximal calcium mobilization and the abscissa represents log molar concentration of lipid.
as §2
FIG. 7: CHOK1 cells transfected with S1P2 receptor DNA

[11] = target: T6, human S1P4 receptor (Homo sapiens, UniProt O95977); assay: GTPγS-35 binding assay, S1P4; assay type: biochemical; settings: FIG. 10
T6 construct: expressed in transfected cells; host or cells: HEK293T (crude microsomes)
Description: FIG. 10 graphically illustrates the results of a broken cell GTPγ^35S binding assay for the human S1P4 receptor. Compound ‘CA5-P’ is VPC01211. Compounds CA6-P and CA4-P are the corresponding cyclohexyl and cyclobutyl compounds.
as §1, with “discarded. This allows for the preparation of a crude microsome from the remainder. Agonist (e.g., S1P) stimulation of the receptor-G protein complex on the microsomes results in the exchange of GTP for GDP on the alpha subunit in a dose-dependent manner.” for “discarded.”

T2 sequence (Q99500 whole entry): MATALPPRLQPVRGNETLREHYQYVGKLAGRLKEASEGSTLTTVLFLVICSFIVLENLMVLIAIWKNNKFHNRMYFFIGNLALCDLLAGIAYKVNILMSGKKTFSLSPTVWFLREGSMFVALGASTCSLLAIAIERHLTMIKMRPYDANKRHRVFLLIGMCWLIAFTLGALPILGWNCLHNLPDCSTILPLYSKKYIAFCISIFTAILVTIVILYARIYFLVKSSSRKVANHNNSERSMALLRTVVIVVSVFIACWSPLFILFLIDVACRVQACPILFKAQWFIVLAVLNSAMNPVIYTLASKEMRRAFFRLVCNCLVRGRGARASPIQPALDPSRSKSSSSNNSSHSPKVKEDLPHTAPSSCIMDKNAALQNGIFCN
T4 sequence (O95136 whole entry): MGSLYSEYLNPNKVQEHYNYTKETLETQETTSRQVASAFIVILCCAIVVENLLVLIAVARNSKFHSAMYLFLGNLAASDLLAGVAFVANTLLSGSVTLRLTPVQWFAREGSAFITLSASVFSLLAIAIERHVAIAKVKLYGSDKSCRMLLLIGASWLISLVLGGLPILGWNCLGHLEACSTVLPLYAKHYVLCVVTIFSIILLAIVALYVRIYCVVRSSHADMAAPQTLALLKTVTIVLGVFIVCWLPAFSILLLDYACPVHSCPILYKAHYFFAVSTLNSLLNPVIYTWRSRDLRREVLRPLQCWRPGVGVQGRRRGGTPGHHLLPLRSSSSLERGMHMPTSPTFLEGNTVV
T1 sequence (Q99500 whole entry): as the sequence (Q99500 whole entry) above
T5 sequence (P21453 whole entry): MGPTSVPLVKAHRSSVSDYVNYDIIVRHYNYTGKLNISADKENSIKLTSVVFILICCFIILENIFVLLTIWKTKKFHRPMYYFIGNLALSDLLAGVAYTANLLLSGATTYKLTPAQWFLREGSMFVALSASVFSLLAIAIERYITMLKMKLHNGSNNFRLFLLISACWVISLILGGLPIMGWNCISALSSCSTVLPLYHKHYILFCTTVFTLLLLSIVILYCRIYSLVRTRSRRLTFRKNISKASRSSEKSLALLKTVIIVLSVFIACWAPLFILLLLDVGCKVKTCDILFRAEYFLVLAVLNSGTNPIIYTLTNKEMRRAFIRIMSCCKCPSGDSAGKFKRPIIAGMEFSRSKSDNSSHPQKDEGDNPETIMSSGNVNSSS
T5 sequence (P04899 2-355 partner limits assumed): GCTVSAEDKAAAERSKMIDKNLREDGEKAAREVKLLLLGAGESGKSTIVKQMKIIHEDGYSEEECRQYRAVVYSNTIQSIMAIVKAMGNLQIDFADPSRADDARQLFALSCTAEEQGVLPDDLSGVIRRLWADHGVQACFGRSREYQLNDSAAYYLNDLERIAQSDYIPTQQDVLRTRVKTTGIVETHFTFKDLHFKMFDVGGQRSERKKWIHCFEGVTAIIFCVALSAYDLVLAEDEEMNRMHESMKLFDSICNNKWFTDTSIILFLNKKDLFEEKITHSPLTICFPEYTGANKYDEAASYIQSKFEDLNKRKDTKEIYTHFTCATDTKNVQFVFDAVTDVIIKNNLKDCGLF
T5 sequence (P62873 2-340 partner limits assumed): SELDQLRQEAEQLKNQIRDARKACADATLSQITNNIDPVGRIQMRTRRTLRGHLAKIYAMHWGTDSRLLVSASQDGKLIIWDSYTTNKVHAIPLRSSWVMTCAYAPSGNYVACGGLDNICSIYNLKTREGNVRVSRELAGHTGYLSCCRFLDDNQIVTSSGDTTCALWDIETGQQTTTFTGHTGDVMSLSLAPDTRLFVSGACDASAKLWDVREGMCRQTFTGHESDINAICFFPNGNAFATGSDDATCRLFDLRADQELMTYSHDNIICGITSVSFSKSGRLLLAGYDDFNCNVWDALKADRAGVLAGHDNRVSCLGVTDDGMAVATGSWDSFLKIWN
T5 sequence (P59768 2-68 partner limits assumed): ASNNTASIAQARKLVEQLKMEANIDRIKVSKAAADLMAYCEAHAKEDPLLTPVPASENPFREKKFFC
T6 sequence (O95977 whole entry): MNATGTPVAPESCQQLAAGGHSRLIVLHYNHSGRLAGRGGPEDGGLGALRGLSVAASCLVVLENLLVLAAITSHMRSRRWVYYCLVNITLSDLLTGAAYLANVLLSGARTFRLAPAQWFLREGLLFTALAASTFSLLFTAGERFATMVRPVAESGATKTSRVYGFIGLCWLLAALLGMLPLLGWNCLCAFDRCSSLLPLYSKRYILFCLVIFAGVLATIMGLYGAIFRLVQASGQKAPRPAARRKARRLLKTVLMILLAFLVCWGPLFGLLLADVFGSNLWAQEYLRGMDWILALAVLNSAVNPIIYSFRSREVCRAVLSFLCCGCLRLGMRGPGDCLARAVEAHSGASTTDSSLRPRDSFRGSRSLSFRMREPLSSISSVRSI
T6 sequence (P04899 2-355 partner limits assumed): as the sequence (P04899 2-355 partner limits assumed) above
T6 sequence (P62873 2-340 partner limits assumed): as the sequence (P62873 2-340 partner limits assumed) above
T6 sequence (P59768 2-68 partner limits assumed): as the sequence (P59768 2-68 partner limits assumed) above
T3 sequence (Q9H228 whole entry): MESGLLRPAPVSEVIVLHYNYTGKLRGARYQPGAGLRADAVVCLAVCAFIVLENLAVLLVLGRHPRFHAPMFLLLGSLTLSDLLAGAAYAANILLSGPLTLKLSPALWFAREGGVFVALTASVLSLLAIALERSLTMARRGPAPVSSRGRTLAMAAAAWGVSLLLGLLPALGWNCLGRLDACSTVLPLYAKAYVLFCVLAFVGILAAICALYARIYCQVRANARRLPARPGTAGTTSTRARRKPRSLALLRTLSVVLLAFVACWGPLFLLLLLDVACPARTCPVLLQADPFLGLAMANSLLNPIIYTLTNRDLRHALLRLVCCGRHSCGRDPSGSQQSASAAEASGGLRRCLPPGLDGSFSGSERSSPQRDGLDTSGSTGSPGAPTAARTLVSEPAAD
T3 sequence (P04899 2-355 partner limits assumed): as the sequence (P04899 2-355 partner limits assumed) above
T3 sequence (P62873 2-340 partner limits assumed): as the sequence (P62873 2-340 partner limits assumed) above
T3 sequence (P59768 2-68 partner limits assumed): as the sequence (P59768 2-68 partner limits assumed) above

activity at the S1P3 receptor (GTPγS binding) [3] | antagonism at S1P3 (rightward shifts in the S1P dose response curves) [4] | antagonism at S1P3 (rightward shift of S1P calcium response) [5] | agonist activity at the S1P5 receptor [6] | activity at the S1P2 receptor (GTPγS binding) [7] | activity at the S1P3 receptor (calcium mobilization) [8] | agonist activity at the S1P1 receptor [9] | activity at the S1P2 receptor (calcium mobilization) [10] | agonist activity at the S1P4 receptor [11] | Structure (SMILES) | effect on heart rate [1] | lymphopenia (total blood lymphocyte count) ([2]; mice, oral gavage, single dose, 2% hydroxypropyl beta-cyclodextrin (FIG. 3)) | duration of lymphopenia ([2]; mice, single ED95 dose) | lymphopenia in mice without a functional SPHK2 gene ([2]; single oral dose, 24 hours (FIG. 5))
– | – | – | – | – | – | – | – | – | CCCCCCCCc1ccc(C2CCC(N)(CO)C2)cc1 (stereo not shown) [VPC01091, (1-amino-3-(4-octylphenyl)cyclopentyl)methanol] | no effect on the heart rate | profound, long lasting lymphopenia | lymphopenia for a week or more | no lymphopenia was observed
negative, or inverse, agonists | surmountable antagonist | surmountable antagonism | partial agonists | inactive | inactive | partial agonists | inactive | full agonists | CCCCCCCCc1ccc(C2CCC(N)(COP(=O)(O)O)C2)cc1 (stereo not shown) [VPC01211, (1-amino-3-(4-octylphenyl)cyclopentyl)methyl dihydrogen phosphate] | – | – | – | –
